Results on 1 substance are retold here after patent US11739350B2 (priority 2018, dated 2023).

The test system of series [1] is BxPC3.
The subject of series [2] is patient-derived pancreatic cancer cell line (Patient 25).
Series [3] relates to BXPC3 cells.
Series [4] concerns Patient 25.
The subject of series [5] is 786-0.
Series [6] deals with 4T1.
Series [7] concerns 786-0 cells.

Consider GSK126, for which the “Cell viability (%) relative to mock vehicle-treated cells (title: GSK126-induced cytotoxicity (%))” value in series [1] turned out to be 96.07%; in series [2] it was 80.82%; in series [5], 111.99%; in series [6] it was 113.57%. Further, the figures for the “Cell viability as a percentage of control (cells treated with mock EVs and vehicle control)” value in series [3], in series [4] and in series [7] were 90.78 percentage of control, 64.14 percentage of control and 98.35 percentage of control, respectively.
